What was measured:
MCF7 [1] = experiment: Cytotoxicity against human MCF7 cells assessed as reduction in cell viability using compound addition to cell culture cells in lag phase of growth and incubated for 48 hrs by MTT assay; type: functional, cell-based; conditions: Homo sapiens, MCF7, 48 h; read-out: IC50
A549 [2] = experiment: Cytotoxicity against human A549 cells assessed as reduction in cell viability using compound addition to cell culture cells in lag phase of growth and incubated for 48 hrs by MTT assay; type: functional, cell-based; conditions: Homo sapiens, A549, 48 h; read-out: IC50
MCF7 [3] = experiment: Cytotoxicity against human MCF7 cells assessed as reduction in cell viability using compound addition to cell culture cells in log phase of growth and incubated for 48 hrs by MTT assay; type: functional, cell-based; conditions: Homo sapiens, MCF7, 48 h; read-out: IC50
A549 [4] = experiment: Cytotoxicity against human A549 cells assessed as reduction in cell viability using compound addition to cell culture cells in log phase of growth and incubated for 48 hrs by MTT assay; type: functional, cell-based; conditions: Homo sapiens, A549, 48 h; read-out: IC50
Vero [5] = experiment: Cytotoxicity against African green monkey Vero cells assessed as reduction in cell viability using compound addition to cell culture cells in log phase of growth and incubated for 48 hrs by MTT assay; type: cell-based, Chlorocebus sabaeus; conditions: Chlorocebus sabaeus, Vero, 48 h; read-out: IC50
Vero [6] = experiment: Cytotoxicity against African green monkey Vero cells assessed as reduction in cell viability using compound addition to cell culture cells in lag phase of growth and incubated for 48 hrs by MTT assay; type: cell-based, Chlorocebus sabaeus; conditions: Chlorocebus sabaeus, Vero, 48 h; read-out: IC50
HeLa [7] = experiment: Cytotoxicity against human HeLa cells assessed as reduction in cell viability using compound addition to cell culture cells in lag phase of growth and incubated for 48 hrs by MTT assay; type: functional, cell-based; conditions: Homo sapiens, HeLa, 48 h; read-out: IC50
HeLa [8] = experiment: Cytotoxicity against human HeLa cells assessed as reduction in cell viability using compound addition to cell culture cells in log phase of growth and incubated for 48 hrs by MTT assay; type: functional, cell-based; conditions: Homo sapiens, HeLa, 48 h; read-out: IC50

Structure (SMILES) | IC50 (MCF7 [1]) | IC50 (A549 [2]) | IC50 (MCF7 [3]) | IC50 (A549 [4]) | IC50 (Vero [5]) | IC50 (Vero [6]) | IC50 (HeLa [7]) | IC50 (HeLa [8])
CC(=O)OCC1=C(C)C[C@H]([C@@H](C)[C@H]2CC[C@H]3[C@@H]4C[C@H](Cl)[C@]5(O)[C@@H](O)C=CC(=O)[C@]5(C)[C@H]4CC[C@]23C)OC1=O | 10.9 µM | 10.8 µM | 7.2 µM | 17.1 µM | 6.5 µM | 4.8 µM | 16.1 µM | 14.8 µM
CCCCN[C@H]1CC(=O)[C@]2(C)[C@H]3CC[C@]4(C)[C@@H]([C@H](C)[C@H]5CC(C)=C(CO)C(=O)O5)CC[C@H]4[C@@H]3C[C@H]3O[C@]32[C@H]1O | 7.6 µM | 21.8 µM | 6.9 µM | 9.6 µM | 20.6 µM | 13.6 µM | 9.6 µM | 8.4 µM
C=C1C(=O)O[C@@H]([C@@H](C)[C@H]2CC[C@H]3[C@@H]4C[C@H]5O[C@]56[C@@H](O)[C@@H](OC)CC(=O)[C@]6(C)[C@H]4CC[C@]23C)C=C1C | > 40 µM | > 40 µM | 23 µM | > 40 µM | > 40 µM | > 40 µM | > 40 µM | > 40 µM
COC(=O)CCC(=O)OCC1=C(C)C[C@H]([C@@H](C)[C@H]2CC[C@H]3[C@@H]4C[C@H]5O[C@]56[C@@H](OC(=O)CCC(=O)OC)C=CC(=O)[C@]6(C)[C@H]4CC[C@]23C)OC1=O | 1.4 µM | 2.1 µM | 1.5 µM | 3.4 µM | 0.6 µM | 0.7 µM | 1.8 µM | 2.9 µM
COCC1=C(C)C[C@H]([C@@H](C)[C@H]2CC[C@H]3[C@@H]4C[C@H]5O[C@]56[C@@H](O)C=CC(=O)[C@]6(C)[C@H]4CC[C@]23C)OC1=O | 1.4 µM | 4.2 µM | 1.9 µM | 5.3 µM | 1.5 µM | 0.9 µM | 3.2 µM | 3.3 µM
CC1=C(CCl)C(=O)O[C@@H]([C@@H](C)[C@H]2CC[C@H]3[C@@H]4C[C@H]5O[C@]56[C@H](Cl)C=CC(=O)[C@]6(C)[C@H]4CC[C@]23C)C1 | 4.1 µM | 9.6 µM | 4.8 µM | 18.1 µM | 3.1 µM | 1.9 µM | 3.1 µM | 7.9 µM
CC1=C(CO)C(=O)O[C@@H]([C@@H](C)[C@H]2CC[C@H]3[C@@H]4C[C@@H]5ON[C@@H]6CC(=O)[C@](C)([C@H]4CC[C@]23C)[C@@]5(O)[C@H]6O)C1 | > 40 µM | > 40 µM | > 40 µM | > 40 µM | > 40 µM | > 40 µM | > 40 µM | > 40 µM
CC1=C(CO)C(=O)O[C@@H]([C@@H](C)[C@H]2CC[C@H]3[C@@H]4C[C@@H](O)[C@]56ON[C@H](CC(=O)[C@]5(C)[C@H]4CC[C@]23C)[C@@H]6O)C1 | > 40 µM | > 40 µM | > 40 µM | > 40 µM | > 40 µM | > 40 µM | > 40 µM | > 40 µM
COc1ccc(C(=O)OCC2=C(C)C[C@H]([C@@H](C)[C@H]3CC[C@H]4[C@@H]5C[C@H](Cl)[C@]6(O)[C@@H](OC(=O)c7ccc(OC)cc7)C=CC(=O)[C@]6(C)[C@H]5CC[C@]34C)OC2=O)cc1 | 3 µM | 24 µM | 4.5 µM | > 40 µM | 3 µM | 3.7 µM | 11.2 µM | 28.1 µM
